Measurements taken from patent publication US20260256792A1, “TREATMENT OF CHRONIC SPONTANEOUS URTICARIA BY ADMINISTERING (R)-2-[3-[4-AMINO-3-(2-FLUORO-4-PHENOXY-PHENYL)PYRAZOLO[3,4-D]PYRIMIDIN-1-YL]PIPERIDINE-1-CARBONYL]-4-METHYL-4-[4-(OXETAN-3-YL)PIPERAZIN-1-YL]PENT-2-ENENITRILE” (priority 2023, published 2026).

System: moderate-to-severe chronic spontaneous urticaria (CSU)
Assay: Phase 2 CSU study: urticaria activity score over 7 days (UAS7)
Assay type: in vivo, human
Set-up: key to UAS7 Median / UAS7 Change from baseline Median / UAS7 change from baseline, Q1 / UAS7 change from baseline, Q3 / UAS7 change from baseline, Max / UAS7 Change from baseline LS Mean (SE): UAS7 points; daily UAS score ranges 0–6 points/day, over 7 days
Text: The study comprises a 12 week, randomized, double-blind, placebo-controlled, multi-center, dose-ranging efficacy and safety phase, followed by a 40 week open label extension (OLE) phase (see FIG. 1). The study consists of three phases and an optional OLE phase. […] Clinically, CSU is characterized by the spontaneous and recurrent appearance of pruritic hives. The proposed primary endpoints were the UAS7 at Week 12 in EU and EU reference countries and the ISS7 in the US. Regardless of where a participant was from, all assessments were the same. The UAS7 score is a composite score containing both the HSS7 and the ISS7. This allowed a global assessment of the two key components of urticaria: hives and itch. […] The UAS is a validated PRO measure. […] The daily UAS scores range from 0 to 6 point/day. […] Patients were to complete the UAS using the e-diary. […] The following secondary endpoints were to be analyzed using the same approach as for the primary endpoint: • Change from baseline in UAS7 at Week 4 • Change from baseline in UAS7 at Week 12 (for US and US reference countries) • Change from baseline in ISS7 at Week 12 (except US and US reference countries) • Change from baseline in HSS7 at Week 12 The following responder secondary endpoints were to be analyzed using the Cochran-Mantel-Haenszel test adjusted by region: • Proportion of participants with UAS7<6 at Week 12 • Proportion of participants with UAS7=0 at Week 12 Participants who received selected prohibited medications and/or rescue medications were to be considered as non-responders for time points after the medication usage. For other participants, all available data including those collected during the off-treatment period were to be used to determine the responder/non-responder status. Missing data were to be considered as non-responders.

[1] = Omalizumab-Naïve Population, 400 mg BID, Week 1
[2] = Omalizumab-Naïve Population, 400 mg BID, Week 2
[3] = Omalizumab-Naïve Population, 400 mg BID, Week 3
[4] = Omalizumab-Naïve Population, 400 mg BID, Week 4
[5] = Omalizumab-Naïve Population, 400 mg BID, Week 12
[6] = Omalizumab-Naïve Population, 400 mg QPM, Week 1
[7] = Omalizumab-Naïve Population, 400 mg QPM, Week 2
[8] = Omalizumab-Naïve Population, 400 mg QPM, Week 3

## CC(C)(C=C(C#N)C(=O)N1CCC[C@@H](n2nc(-c3ccc(Oc4ccccc4)cc3F)c3c(N)ncnc32)C1)N1CCN(C2COC2)CC1 [rilzabrutinib, (R)-2-[3-[4-amino-3-(2-fluoro-4-phenoxy-phenyl)pyrazolo[3,4-d]pyrimidin-1-yl]piperidine-1-carbonyl]-4-methyl-4-[4-(oxetan-3-yl)piperazin-1-yl]pent-2-enenitrile]
Omalizumab-Naïve Population with Outlier Removed, 400 mg QPM, Week 2
  UAS7 Post-baseline Mean (SD): 23.44 (8.97)
Omalizumab-Naïve Population with Outlier Removed, 400 mg QPM, Week 3
  UAS7 Post-baseline Mean (SD): 22.01 (9.00)
Omalizumab-Naïve Population with Outlier Removed, 400 mg QPM, Week 4
  UAS7 Post-baseline Mean (SD): 21.92 (8.82)
Omalizumab-Naïve Population with Outlier Removed, 400 mg QPM, Week 5
  UAS7 Post-baseline Mean (SD): 20.63 (9.18)
Omalizumab-Naïve Population with Outlier Removed, 400 mg QPM, Week 6
  UAS7 Post-baseline Mean (SD): 20.21 (10.42)
Omalizumab-Naïve Population with Outlier Removed, 400 mg QPM, Week 7
  UAS7 Post-baseline Mean (SD): 21.11 (10.03)
Omalizumab-Naïve Population with Outlier Removed, 400 mg QPM, Week 9
  UAS7 Post-baseline Mean (SD): 20.25 (10.25)
Omalizumab-Naïve Population with Outlier Removed, 400 mg QPM, Week 10
  UAS7 Post-baseline Mean (SD): 20.27 (10.69)
Omalizumab-Naïve Population with Outlier Removed, 400 mg QPM, Week 11
  UAS7 Post-baseline Mean (SD): 21.17 (11.16)
Omalizumab-Naïve Population with Outlier Removed, 400 mg TID, Week 1
  UAS7 Post-baseline Mean (SD): 18.29 (9.93)
Omalizumab-Naïve Population with Outlier Removed, 400 mg TID, Week 2
  UAS7 Post-baseline Mean (SD): 16.03 (10.59)
Omalizumab-Naïve Population with Outlier Removed, 400 mg TID, Week 3
  UAS7 Post-baseline Mean (SD): 15.20 (9.97)
Omalizumab-Naïve Population with Outlier Removed, 400 mg TID, Week 4
  UAS7 Post-baseline Mean (SD): 14.65 (9.61)
Omalizumab-Naïve Population with Outlier Removed, 400 mg TID, Week 5
  UAS7 Post-baseline Mean (SD): 13.41 (10.60)
Omalizumab-Naïve Population with Outlier Removed, 400 mg TID, Week 6
  UAS7 Post-baseline Mean (SD): 14.10 (11.23)
Omalizumab-Naïve Population with Outlier Removed, 400 mg TID, Week 7
  UAS7 Post-baseline Mean (SD): 13.54 (9.34)
Omalizumab-Naïve Population with Outlier Removed, 400 mg TID, Week 8
  UAS7 Post-baseline Mean (SD): 13.36 (9.81)
Omalizumab-Naïve Population with Outlier Removed, 400 mg TID, Week 9
  UAS7 Post-baseline Mean (SD): 12.57 (9.72)
Omalizumab-Naïve Population with Outlier Removed, 400 mg TID, Week 10
  UAS7 Post-baseline Mean (SD): 12.61 (9.89)
Omalizumab-Naïve Population with Outlier Removed, 400 mg TID, Week 12
  UAS7 Post-baseline Mean (SD): 11.00 (9.90)
[1]
  UAS7 % Change difference for rilzabrutinib vs. placebo LS Mean (95% CI): −25.01%
  UAS7 % Change from baseline LS Mean (SE): −34.48 (5.64) %
  UAS7 Change difference for rilzabrutinib vs. placebo LS Mean (95% CI): −6.24
  UAS7 Change from baseline LS Mean (SE): −9.79 (1.58)
  UAS7 Post-baseline Mean (SD): 19.77 (11.32)
[2]
  UAS7 % Change difference for rilzabrutinib vs. placebo LS Mean (95% CI): −18.28%
  UAS7 % Change from baseline LS Mean (SE): −36.05 (5.50) %
  UAS7 Change difference for rilzabrutinib vs. placebo LS Mean (95% CI): −4.55
  UAS7 Change from baseline LS Mean (SE): −10.44 (1.57)
  UAS7 Post-baseline Mean (SD): 19.59 (10.86)
[3]
  UAS7 % Change difference for rilzabrutinib vs. placebo LS Mean (95% CI): −20.16%
  UAS7 % Change from baseline LS Mean (SE): −40.11 (5.66) %
  UAS7 Change difference for rilzabrutinib vs. placebo LS Mean (95% CI): −5.04
  UAS7 Change from baseline LS Mean (SE): −11.96 (1.67)
  UAS7 Post-baseline Mean (SD): 17.71 (11.91)
[4]
  UAS7 % Change difference for rilzabrutinib vs. placebo LS Mean (95% CI): −23.20%
  UAS7 % Change from baseline LS Mean (SE): −43.62 (5.88) %
  UAS7 Change difference for rilzabrutinib vs. placebo LS Mean (95% CI): −5.82
  UAS7 Change from baseline LS Mean (SE): −12.89 (1.73)
  UAS7 Post-baseline Mean (SD): 15.92 (11.71)
Omalizumab-Naïve Population, 400 mg BID, Week 5
  UAS7 Post-baseline Mean (SD): 17.22 (13.36)
Omalizumab-Naïve Population, 400 mg BID, Week 6
  UAS7 Post-baseline Mean (SD): 17.02 (12.76)
Omalizumab-Naïve Population, 400 mg BID, Week 7
  UAS7 Post-baseline Mean (SD): 15.55 (11.97)
Omalizumab-Naïve Population, 400 mg BID, Week 8
  UAS7 Post-baseline Mean (SD): 13.98 (13.06)
Omalizumab-Naïve Population, 400 mg BID, Week 9
  UAS7 Post-baseline Mean (SD): 14.64 (14.43)
Omalizumab-Naïve Population, 400 mg BID, Week 10
  UAS7 Post-baseline Mean (SD): 15.22 (14.36)
Omalizumab-Naïve Population, 400 mg BID, Week 11
  UAS7 Post-baseline Mean (SD): 15.06 (13.80)
[5]
  UAS7 % Change difference for rilzabrutinib vs. placebo LS Mean (95% CI): −17.85%
  UAS7 % Change from baseline LS Mean (SE): −48.13 (6.91) %
  UAS7 Change difference for rilzabrutinib vs. placebo LS Mean (95% CI): −4.09
  UAS7 Change from baseline LS Mean (SE): −14.24 (2.06)
  UAS7 Post-baseline Mean (SD): 15.61 (13.91)
[6]
  UAS7 % Change difference for rilzabrutinib vs. placebo LS Mean (95% CI): −12.19%
  UAS7 % Change from baseline LS Mean (SE): −21.67 (5.45) %
  UAS7 Change difference for rilzabrutinib vs. placebo LS Mean (95% CI): −3.51
  UAS7 Change from baseline LS Mean (SE): −7.06 (1.52)
  UAS7 Post-baseline Mean (SD): 23.81 (8.78)
[7]
  UAS7 % Change difference for rilzabrutinib vs. placebo LS Mean (95% CI): −6.60%
  UAS7 % Change from baseline LS Mean (SE): −24.37 (5.29) %
  UAS7 Change difference for rilzabrutinib vs. placebo LS Mean (95% CI): −1.81
  UAS7 Change from baseline LS Mean (SE): −7.71 (1.52)
  UAS7 Post-baseline Mean (SD): 23.44 (8.97)
[8]
  UAS7 % Change difference for rilzabrutinib vs. placebo LS Mean (95% CI): −8.98%
  UAS7 % Change from baseline LS Mean (SE): −28.93 (5.48) %
  UAS7 Change difference for rilzabrutinib vs. placebo LS Mean (95% CI): −2.17
  UAS7 Change from baseline LS Mean (SE): −9.10 (1.61)
